This is an account of results in patent US20020173551A1 (priority 1998, published 2002).

In data set [1] the test system is genital Herpes Simplex viral infection. As to the kind of experiment: Case reports: recurrent genital herpes treated with bupropion. Type of data set: in vivo, humans. The text has this: There were 5-6 recurrences per year. […] The fourth case was patient one, a student with extensive genital herpes. They have had 4 attacks thus far, which have been treated initially with acyclovir and then later with famciclovix. The normal duration of these attacks on these agents was 5-7 days. They were unable to attend classes and took a further 2 weeks before they felt normal. A big feature of their illness is the severe fatigue that precedes and follows their attacks. […] They had not developed any post-[…] fatigue either. They later used a further 2 day course when they felt tingling.

Data set [2] has as its system HSV I / herpes labialis (cold sores). The data set can be described thus: Case reports: herpes labialis (cold sores) treated with bupropion. The data set is classed as in vivo, humans. The text has this:
[…] They have approximately 1 episode per month related to menstrual periods. This has been occurring for the last 6 years and has lasted for at least a week of every month. The severity varied according to […] general state of health and stress levels. The outbreaks lasted at least one week and have made a significant impact on their psychological state. They have not been on systemic therapy.
The third case was patient five, a entrepreneur. They have a coffee shop chain. They are thus very visible and they are very self-conscious of even minor blemishes on their face. They have mild herpes labialis (cold sores), which occurs approximately 5 times a year. They have taken intermittent acyelovir and has even considered continuous acyclovir, because of their image.
[…] They had been paying for acyclovir privately, despite the cost, because of their wish to suppress their frequent and unsightly lesions. […] An attack was treated within 24 hours on the two agents.
[…] This involved the nares, upper and lower lips bilaterally. […] Their partner also developed scarlet fever as well. […] It should be noted that this patient is usually very intolerant of medications and tends to vomit easily.
Her normal herpes labialis lasted between 5 and 7 days.

In a further data set the test system is herpes virus. The data set can be described thus: Overall assessment of the case series against other anti-viral agents. The data set is classed as in vivo, humans. To be noted: treatment and prevention of infections caused by the herpes virus. The text has this:
The physician conducting the above trials has reported that the results thus far have been beyond expectation. They are commented that “not only has there been a success from a completely unlikely agent, but there has also been a success beyond that achieved by the well-established anti-viral agents.”

The test system of another data set is monoamine oxidase. The conditions noted are these: cited from earlier work.
For data set [3], the system named is neuronal uptake of dopamine (DA). To be noted: cited from earlier work.
In data set [4] the test system is neuronal uptake of noradrenahne (NA). To be noted: cited from earlier work.
The subject of data set [5] is HSV I / herpes labialis (cold sores). As to the kind of experiment: Case reports: herpes labialis (cold sores) treated with bupropion. Type of data set: in vivo, humans. This is another data set of the same source.
Data set [6] is described as follows: Side effects observed in the treated cases. Type of data set: in vivo, humans. The text has this:
The sixth case was patient two, a reporter. […] This was given for recurrent buttock herpes simplex II, This was ceased and after 1 year, the hypertension and renal impairment reverted to normal. […] This involved the nares, upper and lower lips bilaterally. Even after topical acyclovir, the course of the illness was 2 weeks of significant outbreak. […] Their partner also developed scarlet fever as well. […] It should be noted that this patient is usually very intolerant of medications and tends to vomit easily.

A further data set has as its system herpes simplex II. As to the kind of experiment: Case report: recurrent buttock herpes simplex II. The data set is classed as in vivo, humans. To be noted: Example 6, case two. The text has this: The sixth case was patient two, a reporter. […] This was given for recurrent buttock herpes simplex II, This was ceased and after 1 year, the hypertension and renal impairment reverted to normal.

[7] abbreviates: Example 1, case gamma, 4 doses of 150 mg over 2 days.
[8] abbreviates: Example 4, case one, 300 mg twice daily for 2 days.

Where a name gives a salt, the structure may show the parent alone.

Regarding `CC(NC(C)(C)C)C(=O)c1cccc(Cl)c1` (racemic) [bupropion, (±)-1-(3-chlorophenyl)-2-[(1,1-dimethylethyl)-amino)-1-propanone hydrochloride], the “time until the attack was aborted” value in [1] (Example 1, case gamma, first use of bupropion) is no more than 2 days. In [1] (setting [7]), the “outcome of an attack about to commence” value is recorded as “aborts the attack completely, or reduces it to a small crop of lesions” and the “time to complete healing of the small crop of lesions” value is no more than 48 h. The “recurrence since commencing the regime” value in data set [1] (Example 1, case gamma, over one year) is listed as “There has not been a single significant recurrence”. In addition, in data set [1] (setting [8]), the lesions after treatment result is on record as “lesions had cleared completely” and the post-viraemia fatigue result was “had not developed any post-viraemia fatigue”. Besides, the “eruptions after a further course at tingling” value in data set [1] (Example 4, case one, further 2 day course) is “did not develop any eruptions”. Further, in [2] (Example 2, case four, HSV I cold sores, 300 mg twice daily for 2 days from day 2 of outbreak), the “complete resolution of lesions (day of outbreak)” value was no more than 3 days. Besides, the “minor recurrence one week later” value in [2] (Example 2, case four, similar dosage) is “aborted by a similar dosage within the first day”. For the same compound, the eruptions result in data set [2] (Example 3, case five, 2 tablets of 150 mg when they feel the tingling) is listed as “has not had an eruption in the last 3 months”. The “outbreak after tingling of the lip” value in [2] (Example 5, case beta, 150 mg every 12 hours for 2 days, two episodes) is “No outbreak of herpes labialis occurred”. Besides, in data set [2] (Example 7, case alpha), the “lesion by day 5” value was “hardly noticeable” and the “time after which the lesion started disappearing” value was determined as 3 days. Also, in data set [2] (Example 7, case three, within 36 hours of taking 300 mg), the progression of lesions result was “did not progress from their initial lesion”. Also, the “comparison with other anti-viral agents such as acydovir and famciclovir” value in the data set with herpes virus was “superior to many other anti-viral agents”. Also, the “inhibition of monoamine oxidase” value in the data set on monoamine oxidase is “does not inhibit”. For the same compound, the “inhibition of neuronal uptake of dopamine” value in data set [3] is “relatively weak inhibitor”. In data set [4], the “inhibition of neuronal uptake of noradrenaline” value is “relatively weak inhibitor”. Besides, the “time until the lesion had dried out” value in [5] (Example 8, 150 mg twice daily for 2 days) was no more than 24 h. For the same compound, the “further time until the lesion was scabbing” value in data set [5] (Example 8, 150 mg twice daily for 2 days, after drying out) is no more than 12 h. The “time to complete resolution (later)” value in data set [5] (Example 8, 150 mg twice daily for 2 days, after scabbing) was found to be 3 days. For the same compound, the concurrent scarlet fever result in data set [6] (Example 7, case alpha) is “did not worsen”. The side effects entry in data set [6] (Example 7, case three, usually very intolerant of medications) is “No side effects were noticed”. In addition, the eruptions result in the data set with herpes simplex II (taken at onset of pre-outbreak symptoms) is given as “has not had an eruption since”.

`CC(=O)OCC(CCn1cnc2cnc(N)nc21)COC(C)=O` [Famciclovir]: in the data set with herpes simplex II (continuous therapy), the “interval between minor outbreaks (approximately once every)” value is 2-3 months and the suppression of disease result is “successfully suppressed their disease”.

As to `Nc1nc2c(ncn2COCCO)c(=O)[nH]1` [acyclovir], in data set [1] (Example 1, case gamma), the “effect in aborting the attacks” value is “partially effective”. Also, the “duration of the attacks” value in data set [1] (Example 1, case gamma, recurrent genital Herpes Simplex, reduced from 2 weeks) lay in the range of 5 to 7 days. In data set [2] (Example 3, case five, mild herpes labialis, taken with the tingling), the duration of attacks is given as 3 days. Also, in data set [2] (Example 3, case five, taken with the tingling), the severity of attacks result is on record as “barely detectable”. Also, the “lesions during suppressive therapy” value in data set [2] (Example 5, case beta, recurrent herpes labialis) is reported as “breakthrough lesions”. Also, the “course of the illness (significant outbreak)” value in data set [2] (Example 7, case three, severe herpes labialis, topical) is given as 2 weeks. Also, in [5] (Example 8, medical receptionist, herpes labialis, topical, in the past), the “effect of topical therapy” value is recorded as “unhelpful”. In addition, the adverse effects result in data set [6] (Example 6, case two, given for recurrent buttock herpes simplex II, reverted to normal 1 year after ceasing) is “developed hypertension and mild renal impairment”.
